Assays:
rat EAE model = experiment: Rat experimental autoimmune encephalomyelitis (EAE) model, preventive treatment; type: in vivo; details: MBP immunization, administered day 0 to day 22
Procedure: (§1) A further study was carried out to study the impact of Lp-PLA2 inhibitors on modulating M1/M2 imbalance. In this study, rats were induced to develop experimental autoimmune encephalomyelitis (EAE) by immunization with myelin basic protein (MBP) antigen and treated with a known Lp-PLA2 inhibitor: 5-((9-Methoxy-4-oxo-6,7-dihydro-4H-pyrimido[6,1-a]isoquinolin-2-yl)oxy)-2-(3-(trifluoromethyl)phenoxy)benzonitrile (See PCT application no. PCT/CN2011/001597). In this preventive treatment model, the compound was administered at day 0 (day of immunization) and continued to administer until day 22. The study lasted for 25 days. Rats were subsequently monitored for symptoms of EAE. Rats were immunized with MBP to develop EAE and symptoms were monitored daily. Plasma Lp-PLA2 activity, OxLDL, and LysoPC concentration were determined at different time points through the course of EAE.

[1] = tested on: proinflammatory (M1) and anti-inflammatory (M2) markers; experiment: Ex vivo analysis of M1 and M2 markers in macrophages of EAE rats by realtime PCR; set-up: species or system rat; details: splenic macrophages day 13 post MBP-immunization and CNS infiltrating macrophages
Procedure: Ex vivo analysis of proinflammatory (M1) and anti-inflammatory (M2) markers in control and compound treated EAE rats. Splenic macrophages were harvested at day 13 post MBP-immunization and assayed for expression of a variety of markers by realtime PCR. CNS infiltrating cells were harvested and macrophages were analyzed for expression of M1 and M2 markers by realtime PCR.

Lp-PLA2 [2] = biological target: T1, Lp-PLA2 (Rattus norvegicus, UniProt A6JJ35); experiment: Plasma Lp-PLA2 activity and LysoPC in rat EAE plasma; type: in vivo
T1 construct: from tissue; host or cells: plasma of EAE rats
T1 sequence (A6JJ35 22-440): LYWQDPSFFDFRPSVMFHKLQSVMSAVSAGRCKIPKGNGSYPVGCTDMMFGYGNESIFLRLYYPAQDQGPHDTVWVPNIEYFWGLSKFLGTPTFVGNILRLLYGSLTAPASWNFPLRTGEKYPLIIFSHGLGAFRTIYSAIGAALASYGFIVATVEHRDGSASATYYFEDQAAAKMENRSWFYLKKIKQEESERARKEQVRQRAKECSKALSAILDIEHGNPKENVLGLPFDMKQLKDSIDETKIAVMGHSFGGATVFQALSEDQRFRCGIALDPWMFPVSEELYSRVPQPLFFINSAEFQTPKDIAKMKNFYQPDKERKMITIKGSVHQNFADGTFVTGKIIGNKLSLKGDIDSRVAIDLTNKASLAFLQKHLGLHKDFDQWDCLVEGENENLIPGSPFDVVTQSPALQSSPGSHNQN
Procedure: as §1

Lp-PLA2 [3] = experiment: as above; type: in vivo
Procedure: as §1

[4] = biological target: Recombinant human PLA2 VIIB (Homo sapiens, UniProt Q99487); experiment: PLA2 VIIB assay; type: biochemical
Source text: PLA2 VIIB (also known as Novel Serine Dependent Lipase, NSDL) is a serine hydrolase with 40% amino acid identity with human Lp-PLA2. Sequence comparisons indicate that the PLA VIIB active site catalytic triad positions are similar to those of Lp-PLA2. Similar to Lp-PLA2, it is capable of hydrolyzing oxidatively modified phospholipids and may be assayed using known Lp-PLA2 substrates.
Upon cleavage by a phopholipase, […] liberates a fluorescent Bodipy group. Recombinant human PLA2 VIIB is used as the phospholipase source in this assay, and compounds are screened to test their degree of inhibition in this assay. The assay is used to determine the degree of selectivity of the testing compounds between PLA2 VIIB and Lp-PLA2.
The PLA2 VIIB assay was applied as an unquenched 10 μL assay. The source plate containing the compounds is prepared by making 1:3 (by volume) serial dilution of the compounds with pure DMSO on 384-well microplate. 0.01 μL of compounds on the compound source plate were transferred into 384 well Greiner 784076 (black) plates by ECHO liquid dispenser. 5 μL of Novel Serine Dependent Lipase (NSDL) enzyme (5 nM NSDL in assay buffer of 50 mM HEPES, pH 7.4, 150 mM NaCl, 1 mM CHAPS) was added to each well. […] Plates were kinetic read by starting read immediately after PED6 addition at ex: 480/em:540 using ViewLux microplate reader or Envision spectrofluorimeters. […]

Lp-PLA2 activity in rat EAE plasma (Lp-PLA2 [2]) | selectivity between human recombinant Lp-PLA2 and PLA2 VIIB [4] [fold] | Structure (SMILES) | clinical disease (EAE) (rat EAE model) | M1 markers [1] | M2 markers [1] | LysoPC levels in rat EAE plasma (Lp-PLA2 [3])
decreased | – | COc1ccc2c(c1)CCn1c-2cc(Oc2ccc(Oc3cccc(C(F)(F)F)c3)c(C#N)c2)nc1=O [5-((9-Methoxy-4-oxo-6,7-dihydro-4H-pyrimido[6,1-a]isoquinolin-2-yl)oxy)-2-(3-(trifluoromethyl)phenoxy)benzonitrile] | reduction in clinical disease | decrease | increase | decreased
– | ≤ 100 | Cc1ccccc1CN1CCCn2c1cc(OCc1ccc(F)c(F)c1)nc2=O [Example E7, 8-((3,4-difluorobenzyl)oxy)-1-(2-methylbenzyl)-3,4-dihydro-1H-pyrimdo[1,6-a]pyrimidin-6(2H)-one] | – | – | – | –

— US9296755B2, “3,4-dihydro-1H-pyrimido[1,6-a]pyrimidin-6(2H)-one compounds and their therapeutic applications” (GlaxoSmithKline Intellectual Property Development Limited, priority 2013, dated 2016)
